Reference: PubChem BioAssay AID504478 (NMMLSC, 2011)

Target: Serine/threonine-protein kinase SCH9 (Saccharomyces cerevisiae (strain ATCC 204508 / S288c)) (UniProt P11792)
Assay: Sch9 T570 phosphorylation inhibition in yeast, SAR follow-up, mechanism study for yeast TOR pathway modulator project, cell-based, HA-Sch9, immunoblot (AID 504478)
Settings: S. cerevisiae HA-Sch9, T570 phospho immunoblot, 30 min

Serine/threonine-protein kinase SCH9 (Saccharomyces cerevisiae (strain ATCC 204508 / S288c)), sequence (P11792 whole entry, looked up): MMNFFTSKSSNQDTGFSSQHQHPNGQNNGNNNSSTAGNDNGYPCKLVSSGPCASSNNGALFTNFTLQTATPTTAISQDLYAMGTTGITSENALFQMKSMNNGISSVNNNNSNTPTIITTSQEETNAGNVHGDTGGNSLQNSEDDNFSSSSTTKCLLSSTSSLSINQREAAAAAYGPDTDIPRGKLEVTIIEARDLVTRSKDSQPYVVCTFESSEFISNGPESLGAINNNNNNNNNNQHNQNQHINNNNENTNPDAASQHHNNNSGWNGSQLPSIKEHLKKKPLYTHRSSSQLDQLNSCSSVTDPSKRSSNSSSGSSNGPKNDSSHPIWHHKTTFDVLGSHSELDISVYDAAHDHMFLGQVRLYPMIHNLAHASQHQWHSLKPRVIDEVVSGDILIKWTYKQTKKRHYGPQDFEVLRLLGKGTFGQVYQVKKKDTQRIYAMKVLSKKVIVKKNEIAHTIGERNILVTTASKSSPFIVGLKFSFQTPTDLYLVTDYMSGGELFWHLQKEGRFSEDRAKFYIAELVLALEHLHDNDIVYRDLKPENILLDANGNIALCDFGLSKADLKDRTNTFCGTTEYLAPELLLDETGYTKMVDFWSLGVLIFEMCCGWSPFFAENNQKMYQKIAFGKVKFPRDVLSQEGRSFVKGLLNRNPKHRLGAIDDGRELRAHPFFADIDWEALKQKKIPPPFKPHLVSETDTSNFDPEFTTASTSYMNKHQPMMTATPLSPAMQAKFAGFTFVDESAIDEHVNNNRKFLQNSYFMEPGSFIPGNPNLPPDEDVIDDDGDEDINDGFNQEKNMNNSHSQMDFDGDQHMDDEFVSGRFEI

IC50: 4.5 µM
SMILES: CNc1nc(N)c([N+](=O)[O-])c(Nc2cccc(F)c2)n1
